For data set [1], the system named is mouse embryonic liver cells (BNLCL.2). As to the kind of experiment: MTT cell viability test of doxorubicin CCM (FePD) with and without deferoxamine. It counts as cell-based. Conditions: 4 μM, 2 h incubation, then 24 h fresh medium, BNLCL.2 cells, 4 µM. On the procedure:
(§1) The cell viability test of doxorubicin CCM (FePD) was examined with and without adding metal chelator deferoxamine. MTT (3-(4,5-cimethylthiazol-2-yl)-2,5-diphenyl tetrazolium bromide) assay was used to assess the cytotoxicity of cells treated with FePD and deferoxamine.
(§2) The mouse embryonic liver cells (BNLCL.2) (100 μL) were inoculated onto a 96-well plate with density 1×10^5 cells/mL and cultured for 24 hr at 37° C. with 5% CO2 before subjecting to the test. After removal of supernatant, 100 μL of each sample was added to the cells and incubated for 2 hours (Table 1). The samples were sterilized by using 0.22 μm filters prior to treating the cells. The plate was then washed with PBS (phosphate buffered saline) and incubated with fresh medium for 24 hours. After removal of supernatant and washed with PBS, 10 μL MTT solution was added to the cells and incubated for 4 hours. The absorbance at 570 nm was measured (BioTek, Synergy TM2, USA).

Assay in data set [2]: as above
Format: cell-based, mouse. As to conditions: mouse, BNLCL.2 mouse embryonic liver cells, 2 h incubation, BNLCL.2 cells. How it is done:
as §1, §2

In general, viability refers to a read-out of living cells in per cent, often relative to untreated cells. Take `COc1cccc2c1C(=O)c1c(O)c3c(c(O)c1C2=O)C[C@@](O)(C(=O)CO)C[C@@H]3O[C@H]1C[C@H](N)[C@H](O)[C@H](C)O1` [doxorubicin]: in data set [1], the “Cell viability (%)” value was found to be 74.7292%. Also, the viability at 2 h, 4 μM stood at 74.7% in data set [2] (4 μM, then 24 h fresh medium) and 78.3% in data set [2] (Group G: 4 μM + deferoxamine (13.5 μM)).
As to `CC(=O)N(O)CCCCCNC(=O)CCC(=O)N(O)CCCCCNC(=O)CCC(=O)N(O)CCCCCN` [deferoxamine], the viability at 2 h, 13.5 µM in data set [2] (13.5 μM, then 24 h fresh medium) amounted to 104%.
